From patent US20220378763A1, “COMPOUND FOR TREATMENT OF ACUTE INFLAMMATION IN THE MYOCARDIUM” (CALPROTECT AB, priority 2019, published 2022)

Key:
[1] = system: C57BL/6 mice with sepsis induced by bacterial lipopolysaccharide; test: LPS-induced sepsis: plasma cytokines by multiplex assay; assay type: in vivo, mouse; conditions: 24 h after sepsis induction, vs PBS
Experimental: General animal care, induction of sepsis and treatments were performed as described under Example 7. We included 5 mice per treatment group. The mice were sacrificed 24 h after sepsis induction and blood was drawn using cardiac puncture with an EDTA 0.5M coated syringe. Blood was spun down at 3000 rpm for 10 minutes and plasma was collected.
Cytokine measurements were performed using the Cytokine & Chemokine 36-Plex Mouse procartaPlex™ P1A (ThermoFischer Scientific) as per manufacturer's instructions. Data are presented as mean±SD.

[2] = system: C57BL/6 mice with MI induced by permanent coronary artery ligation; test: Quantitative PCR of whole heart tissue 3 days post-MI; assay type: in vivo, mouse
Experimental: Total RNA was isolated from whole heart tissue using the TRI Reagent™ Solution (Invitrogen) according to the manufacturer's instructions. cDNA was generated from 2 μg of total RNA per sample using the High Capacity RNA to cDNA™ Kit (Applied Biosystems™). Quantitative real-time TaqMan PCR was performed using the following TaqMan primers (Applied Biosystems): Il-1b (Mm00434228_m1), Arg-1 (Mm00475988_m1), Ym-1 (Mm00657889_mH), Cc/5 (Mm01302427_m1), Tnf-α (Mm00443258_m1), Il-12 (Mm01288989_m1), IFN-γ (Mm01168134_m1), Il-10 (Mm00439614_m1), TGF-β (Mm01178820_m1), Il-4 (Mm00445259_m1) and housekeeping gene Hypoxantine-guanine phosphoribosyltransferase (HPRT) (Mm01324427_m1). Quantitative PCR was run on a ViiA7 Real-Time PCR System (Applied Biosystems) and data were quantified with the 2^−ΔCt method.
In order to assess the effects of the treatment on the post-MI cardiac environment, we performed qPCR analysis of mRNA encoding for proteins involved in myocardial inflammation and repair. The analysis was done in whole heart tissue collected at 3 days post-MI from mice receiving ABR-238901 or PBS (n=5 mice per group). […] The expression of IL-1β, TNFα, IL-10 and TGFβ was not affected at this stage (FIG. 3C, D, H). […] As neutrophils are the main producers of S100A8/A9, this effect is in line with the blunted local and systemic neutrophil response to MI observed in ABR-238901-treated mice (FIG. 2A, H).

[3] = molecular target: T1, S100A9 binding to RAGE (Homo sapiens, UniProt P06702); test: Surface plasmon resonance (Biacore 3000): inhibition of S100A9 binding to immobilized RAGE; conditions: 50 nM recombinant human S100A9 over immobilized RAGE; response at late dissociation phase
T1 sequence (P06702 1-114): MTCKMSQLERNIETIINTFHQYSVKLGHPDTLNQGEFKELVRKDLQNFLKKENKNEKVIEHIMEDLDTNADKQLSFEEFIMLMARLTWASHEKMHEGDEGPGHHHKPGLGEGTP
Text: (a) The molecular structure of ABR-238901. (b-c) Surface plasmon resonance measurement of S100A9 binding to immobilized RAGE (b) and TLR4 (c) in the presence of increasing ABR-238901 concentrations. The magnitude of the response for each ABR-238901 concentration (BABR-238901), measured at the late dissociation phase (t 350s), was expressed as percentage of the response in the absence of competitor (BO), and plotted against the concentration of ABR-238901.
Inhibition of S100A9 binding to RAGE and TLR4/MD2 by ABR-238901 was tested by surface plasmon resonance in a Biacore 3000 system (GE Healthcare, Uppsala, Sweden). Briefly, 50 nM of recombinant human S100A9 was injected over immobilized RAGE and TLR4 (2 min at 30 μL/min) in the presence of increasing concentrations of ABR-238901, ranging from 0.0488 to 100 μM. The magnitude of the responses measured at the late dissociation phase (t 350 s) in the presence of ABR-238901 (BABR-238901) were expressed as percentage of response in the absence of competitor (Bo), and plotted against the concentration of ABR-238901 (FIG. 7b-c). The curves were fit to a sigmoidal dose-response model with variable slope in Prism GraphPad for calculation of IC50.

[4] = system: C57BL/6 mice reconstituted with Nur77-EGFP bone marrow, with MI; test: Nur77 expression by flow cytometry in Nur77-EGFP bone marrow chimeras, day 7 post-MI; assay type: in vivo, mouse; conditions: 7 days treatment
Experimental: Eight-week-old C57BL/6NRJ female mice were lethally irradiated with a total dose of 910 cGy. One day after irradiation, 1×10^6 total bone marrow cells harvested from donor C57BL/6-Tg(Nr4a1-EGFP/cre)820Khog/J (Nur77-EGFP) mouse and re-suspended in PBS were administered to each recipient mouse via the tail vein. Recipient mice were treated with neomycin in drinking water (2 g/L) for two weeks. Blood samples were collected from all the recipient mice at four weeks after bone marrow transfer, to confirm the success of bone marrow reconstitution by flow cytometry. The mice were used for experiments 6 weeks after bone marrow transfer (FIG. 4S).
In order to investigate the underlying molecular mechanisms involved in the […] of myocardial repair by S100A9 blockade, we induced MI in C57Bl/6 mice transplanted with Nur77-EGFP transgenic bone marrow expressing the fluorescent EGFP protein under the Nur77 promoter (FIG. 4S). The expression of Nur77 was measured by flow cytometry in blood monocytes and heart macrophages harvested on day 7 post-MI from mice receiving 7 days ABR-238901 treatment or PBS. […] Nur77 levels were unaffected in the fully-differentiated Ly6C^lo monocytes and Ly6C^loMerTK^hi macrophages (FIG. 4t; FIG. 11b). Further, we studied the influence of S100A9 on Nur77 expression and activity in monocytes and macrophages in-vitro, and the ability of ABR-238901 to inhibit these effects. Stimulation with recombinant extracellular S100A9 for 24 h increased Nur77 expression in bone marrow-derived C57BL/6 monocytes (FIG. 4U). […] Both of these effects were inhibited by ABR-238901 (FIG. 4U-V).

What does the source list for `COc1ncc(S(=O)(=O)Nc2cncc(Cl)c2O)cc1Br` [ABR-238901, 5-bromo-N-(5-chloro-4-hydroxypyridin-3-yl)-6-methoxypyridine-3-sulfonamide]?
Plasma level of GM-CSF [1]: decreased; Plasma level of IFN-γ [1]: decreased; Plasma level of IL17-A [1]: decreased; Plasma level of IL-1b [1]: decreased; Plasma level of IL-6 [1]: decreased; Plasma level of IL-22 [1]: decreased; Plasma level of LIF [1]: decreased; Plasma level of LIX [1]: decreased; Plasma level of MCP-1 [1]: decreased; Gene expression of the chemokine CCL5/RANTES in heart [2]: inhibited; IL-1β expression in heart [2]: not affected; IL-10 expression in heart [2]: not affected; TGFβ expression in heart [2]: not affected; TNFα expression in heart [2]: not affected; Arg-1 mRNA expression in heart ([2]; vs MI controls): enhanced; IFN-γ mRNA expression in heart ([2]; vs MI controls): inhibited; IL-4 mRNA expression in heart ([2]; vs MI controls): enhanced; IL-12 mRNA expression in heart ([2]; vs MI controls): inhibited; Ym-1 mRNA expression in heart ([2]; vs MI controls): enhanced; IC50 [3]: 2700 nM; Intracellular Nur77 levels in blood Ly6Chi/int monocytes [4]: lower; Numbers of reparatory Ly6CloMerTKhi macrophages in the myocardium [4]: reduced; Nur77 levels in Ly6Clo monocytes [4]: unaffected; Nur77 levels in Ly6CloMerTKhi macrophages [4]: unaffected
